The record followed here is patent publication US8003372B2, “Device for performing cell assays” (The University Court of the University of Glasgow, priority 2002, dated 2011).

The test deals with adult ventricular myocytes.

Experimental: Single cardiac myocytes were isolated from rabbit ventricles by collagenase digestion (D. A. Eisner, C. G. Nichols, S. C. O'Neill, G. L. Smith and M. Valdeomillos, The effects of metabolic inhibition on intracellular calcium an pH in isolated rat ventricular cells, Journal of Physiology, 411, (1989), 393-418) and kept in Base Krebs Solution, containing 120 mM NaCl, 20 mM sodium N-hydroxyethylpiperazine-N′-2-ethane sulphonic acid, 5.4 mM KCl, 0.52 mM NaH2PO4, 3.5 mM MgCl2.6H2O, 20 mM Taurine, 10 mM Creatine, 100 mM Glucose, 0.1% BSA, 0.1 mM CaCl2. The pH was adjusted to 7.4 with 100 mM NaOH.
Sarcomere length and intracellular Ca^2+ concentration ([Ca^2+]i) were monitored simultaneous using the fluorescence-contractility System of Ionoptix (Milton, Mass., USA). Ventricular myocytes were loaded with Fluo-3 by incubation for 30 min in 20 μM Fluo-3 AM solution (Molecular Probes). […] To measure the possible change in extracellular pH during field stimulation, 10 μM BCECF (Molecular Probes) was added to the bath and the emission was recorded using the same filter set as for Fluo-3. […]
Symmetric biphasic rectangular pulses were generated across the electrodes. […] A voltage-current converter was used to read the current response of one electrode together with the corresponding voltage into a 20 MHz 4 channel acquisition card (PCI-9812, Adlink, Taiwan). A TTL signal synchronous to the biphasic pulses was fed into the reader of the PMT-current to mark each pulse arrival on the fluorescence trace for off-line event averaging. After filling the microchambers with electrolyte (buffer), the current evoked on the individual stimulation electrodes was monitored to assure the ionic connection between the microelectrodes in each chamber, prior to the addition of cardiac muscle cells. The measured current was integrated to give a measure of the total amount of net-charge added to the microchamber, and the polarization of the electrode surface. […]

In the case of `N#CC(C#N)=NNc1ccc(OC(F)(F)F)cc1` [FCCP], the “Ca2+ transients evoked at 0.5 Hz” value (1 μM FCCP, 10 minutes after the 50 min time point of continual stimulation, 100 pL chamber) is on record as “ceased almost completely”. Also, where the note is “1 μM FCCP, after 50 min continual stimulation at alternating frequencies of 0.5 and 1.0 Hz, 100 pL chamber”, the “response of the cell to electrical stimuli (Ca2+ transient)” value is given as “no longer responded to every single stimulus with a Ca^2+ transient of normal amplitude”. For the same compound, under “after washing out FCCP, changing the buffer and a 5 min rest interval”, the “excitability of the cell after washing out” value is on record as “regained its excitability”.
